In patent US12037345B2, “Heterobicyclic compounds for inhibiting the activity of SHP2” (TAIHO PHARMACEUTICAL CO., LTD., priority 2018, dated 2024):

How the values were obtained:
[1] = target: SHP2 (Homo sapiens (Human), UniProt Q06124); test: SHP2 Biochemical Assay (DiFMUP conversion, pIRS1-activated); conditions: Table 19; head prints unit as "-M"
Method: SHP2 activity was monitored by measuring the conversion of the surrogate substrate 6,8-difluoromethylumbelliferyl phosphate (DiFMUP) to the fluorescent product, 6,8-difluoromethylumbelliferone (DiFMU).
SHP2 was pre-incubated with test compounds and the activating peptide pIRS1 (H2N-LN(pY)IDLDLV-(PEG)8-LST(pY)ASINFQK-amide) for 30 min, prior to addition of the 6,8-difluoromethylumbelliferyl phosphate (DiFMUP), (Thermo Fisher D6567). Final assay concentrations were 10 pM SHP2, […] pIRS1 peptide, 50 μM DiFMUP, 25 mM Bis-Tris propane, pH 7.0, 150 mM NaCl, 0.05% (v/v) Tween-20, 0.5 mM TCEP and 5% (v/v) DMSO. Rates of reaction were then measured over 30 min by monitoring fluorescence on a BMG Pherastar reader at excitation 360 nm/emission 450 nm. IC50 values were calculated in singlicate from the normalized dose-response plots using four parameter logistic curve fit. The Experiment for each compound was carried out in one time or multiple times, and the IC50 values were shown as a single value (for a compound measured in a single experiment) or an average value (for a compound measured in multiple experiments).

[2] = tested on: pERK (phospho-p44/42 ERK) in HCC827 cells; test: Cellular pERK Inhibition Assay, Method A (In-Cell Western); type: cell-based; conditions: Homo sapiens, Table 19, head prints unit as "-M", read-out: pERK (IC50) Method A
Method: Cellular pERK Inhibition Assay
pERK levels were determined using the In-Cell Western assay. HCC827 cells (ATCC, Manassas, USA) were seeded into 384-well plates at a density of 1×10^4 cells/well in RPMI1640 medium supplemented with 10% FBS and incubated 24h. Compounds were diluted first in DMSO and then into serum-free medium, before being added to cells in quadruplicate to give a final concentration of 0.2% DMSO. Plates were incubated at 37° C. for the indicated time in a humidified atmosphere of 5% CO2 in air.
Following compound treatment, cells were fixed with formalin neutral buffer solution for 20 minutes at room temperature. Plates were washed three times with 0.1% Triton-X in PBS and cells were blocked for 1 hour with Odyssey blocking buffer (LI-COR, #927-40000). After shaking out blocking buffer, cells were incubated with phospho-p44/42 ERK antibody (Cell Signalling Technology, #4370, 1:200) diluted in Odyssey blocking buffer at 4° C. overnight. Plates were washed again and cells were incubated for 1 hour with Goat anti-Rabbit […] (LI-COR, #926-32211, 1:800) diluted in Odyssey blocking buffer. After washing and removing wash solution completely using a centrifuge machine, cells were scanned on the Odyssey (LI-COR), following the manufacturer's instructions. The average signal from blank wells (no cells added) was subtracted from the signals from each sample well. Levels of pERK were then expressed as percent of control, using DMSO treated samples as control. The relative IC50 values were calculated in quadruplicate from the normalized dose-response plots using four parameter logistic curve fit. The Experiment for each compound was carried out in one time or multiple times, and the IC50 values were shown as a single value (for a compound measured in a single experiment) or an average value (for a compound measured in multiple experiments).

Chain of SHP2 (Q06124 whole entry): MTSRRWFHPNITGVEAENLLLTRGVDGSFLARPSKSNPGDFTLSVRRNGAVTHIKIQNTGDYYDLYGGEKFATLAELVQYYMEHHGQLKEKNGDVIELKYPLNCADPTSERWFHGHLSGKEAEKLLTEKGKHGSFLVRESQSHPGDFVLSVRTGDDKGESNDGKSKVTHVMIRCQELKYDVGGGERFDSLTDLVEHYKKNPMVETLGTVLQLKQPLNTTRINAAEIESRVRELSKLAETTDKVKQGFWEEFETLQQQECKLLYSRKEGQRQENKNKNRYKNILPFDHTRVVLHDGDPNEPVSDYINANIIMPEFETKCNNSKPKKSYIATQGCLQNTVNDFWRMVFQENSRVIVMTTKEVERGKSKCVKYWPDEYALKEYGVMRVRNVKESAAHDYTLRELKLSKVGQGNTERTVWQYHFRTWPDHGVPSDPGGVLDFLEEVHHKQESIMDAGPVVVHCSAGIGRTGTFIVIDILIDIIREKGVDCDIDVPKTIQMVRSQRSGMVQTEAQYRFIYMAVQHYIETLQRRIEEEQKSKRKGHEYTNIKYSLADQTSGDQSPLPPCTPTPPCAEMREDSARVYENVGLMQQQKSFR

Compound | IC50 [1] | IC50 [2]
Cn1nc2ccc(-c3c[nH]c4nc(N5C6CCC5CNC6)n(C)c(=O)c34)c(Cl)c2n1 [Example 87, 2-(3,8-diazabicyclo[3.2.1]octan-8-yl)-5-(4-chloro-2-methyl-2H-benzo[d][1,2,3]triazol-5-yl)-3-methyl-3,7-dihydro-4H-pyrrolo[2,3-d]pyrimidin-4-one] | 68 nM | 580 nM
CN(C)C(=O)CCn1nc2ccc(-c3c[nH]c4nc(N5C6CCCC5CNC6)n(C)c(=O)c34)c(Cl)c2c1Cl [Example 83, 3-(5-(2-(3,9-diazabicyclo[3.3.1]nonan-9-yl)-3-methyl-4-oxo-4,7-dihydro-3H-pyrrolo[2,3-d]pyrimidin-5-yl)-3,4-dichloro-2H-indazol-2-yl)-N,N-dimethylpropanamide] | 11 nM | 190 nM
CCn1cc2c(Cl)c(-c3n[nH]c4nc(N5C6CCCC5CNC6)n(C)c(=O)c34)ccc2n1 [Example 111, 6-(3,9-diazabicyclo[3.3.1]nonan-9-yl)-3-(4-chloro-2-ethyl-2H-indazol-5-yl)-5-methyl-1,5-dihydro-4H-pyrazolo[3,4-d]pyrimidin-4-one] | 26 nM | 410 nM
Cn1cc2c(Cl)c(-c3c[nH]c4nc(N5CC6CC(C5)N6)n(C)c(=O)c34)ccc2n1 [Example 31, 2-(3,6-diazabicyclo[3.1.1]heptan-3-yl)-5-(4-chloro-2-methyl-2H-indazol-5-yl)-3-methyl-3,7-dihydro-4H-pyrrolo[2,3-d]pyrimidin-4-one] | 40 nM | 1000 nM
Cc1nc2ccc(-c3c[nH]c4nc(N5C6CCC5CNC6)n(C)c(=O)c34)c(Cl)c2s1 [Example 90, 2-(3,8-diazabicyclo[3.2.1]octan-8-yl)-5-(7-chloro-2-methylbenzo[d]thiazol-6-yl)-3-methyl-3,7-dihydro-4H-pyrrolo[2,3-d]pyrimidin-4-one] | 12 nM | 740 nM
Cn1nc2ccc(-c3c[nH]c4nc(N5[C@@H]6CC[C@H]5C[C@@H](N)C6)n(C)c(=O)c34)c(Cl)c2c1Cl [Example 78, 2-(endo-3-amino-8-azabicyclo[3.2.1]octan-8-yl)-5-(3,4-dichloro-2-methyl-2H-indazol-5-yl)-3-methyl-3,7-dihydro-4H-pyrrolo[2,3-d]pyrimidin-4-one] | 6 nM | 130 nM
Cn1cc2c(Cl)c(-c3c[nH]c4nc(N5CC6CC5CC6N)n(C)c(=O)c34)ccc2n1 (stereo not shown) [Example 35, 2-(5-amino-2-azabicyclo[2.2.1]heptan-2-yl)-5-(4-chloro-2-methyl-2H-indazol-5-yl)-3-methyl-3,7-dihydro-4H-pyrrolo[2,3-d]pyrimidin-4-one] | 38 nM | 1000 nM
Cn1cc2c(Cl)c(-c3c[nH]c4nc(N5C6CCCC5CNC6)n(C)c(=O)c34)ccc2n1 [Example 27, 2-(3,9-diazabicyclo[3.3.1]nonan-9-yl)-5-(4-chloro-2-methyl-2H-indazol-5-yl)-3-methyl-3,7-dihydro-4H-pyrrolo[2,3-d]pyrimidin-4-one] | 7 nM | 46 nM
CCc1nc2ccc(-c3c[nH]c4nc(N5[C@@H]6CC[C@H]5C[C@@H](N)C6)n(C)c(=O)c34)c(Cl)c2o1 [Example 69, 2-(endo-3-amino-8-azabicyclo[3.2.1]octan-8-yl)-5-(7-chloro-2-ethylbenzo[d]oxazol-6-yl)-3-methyl-3,7-dihydro-4H-pyrrolo[2,3-d]pyrimidin-4-one] | 120 nM | 3000 nM
Cn1c(N2C3CCCC2CNC3)nc2[nH]nc(-c3ccc4ncsc4c3Cl)c2c1=O [Example 122, 6-(3,9-diazabicyclo[3.3.1]nonan-9-yl)-3-(7-chlorobenzo[d]thiazol-6-yl)-5-methyl-1,5-dihydro-4H-pyrazolo[3,4-d]pyrimidin-4-one] | 8 nM | 140 nM
Cc1nc2ccc(-c3c[nH]c4nc(N5[C@@H]6CC[C@H]5C[C@@H](N)C6)n(C)c(=O)c34)c(Cl)c2o1 [Example 68, 2-(endo-3-amino-8-azabicyclo[3.2.1]octan-8-yl)-5-(7-chloro-2-methylbenzo[d]oxazol-6-yl)-3-methyl-3,7-dihydro-4H-pyrrolo[2,3-d]pyrimidin-4-one] | 41 nM | 670 nM
Cn1c(N2[C@@H]3CC[C@H]2C[C@@H](N)C3)nc2[nH]cc(-c3ccc4nnn(C)c4c3Cl)c2c1=O [Example 74, 2-(endo-3-amino-8-azabicyclo[3.2.1]octan-8-yl)-5-(7-chloro-1-methyl-1H-benzo[d][1,2,3]triazol-6-yl)-3-methyl-3,7-dihydro-4H-pyrrolo[2,3-d]pyrimidin-4-one] | 170 nM | 5400 nM
Cn1cc2c(Cl)c(-c3c[nH]c4nc(N5C[C@H](N)[C@@H](F)C5)n(C)c(=O)c34)ccc2n1 [Example 52, 2-((3S,4S)-3-amino-4-fluoropyrrolidin-1-yl)-5-(4-chloro-2-methyl-2H-indazol-5-yl)-3-methyl-3,7-dihydro-4H-pyrrolo[2,3-d]pyrimidin-4-one] | 180 nM | 1900 nM
Cn1nc2ccc(-c3n[nH]c4nc(N5[C@H]6CC[C@@H]5[C@H](N)C6)n(C)c(=O)c34)c(Cl)c2c1Cl [Example 114, 6-((1R,2R,4S)-2-amino-7-azabicyclo[2.2.1]heptan-7-yl)-3-(3,4-dichloro-2-methyl-2H-indazol-5-yl)-5-methyl-1,5-dihydro-4H-pyrazolo[3,4-d]pyrimidin-4-one] | 5.5 nM | 73 nM
CN[C@@H]1C[C@@H]2CC[C@H]1N2c1nc2[nH]nc(-c3ccc4nn(C)cc4c3Cl)c2c(=O)n1C [Example 120, 3-(4-chloro-2-methyl-2H-indazol-5-yl)-5-methyl-6-((1R,2R,4S)-2-(methylamino)-7-azabicyclo[2.2.1]heptan-7-yl)-1,5-dihydro-4H-pyrazolo[3,4-d]pyrimidin-4-one] | 29 nM | 550 nM
CCn1cc2c(Cl)c(-c3c[nH]c4nc(N5[C@@H]6CC[C@H]5C[C@@H](N)C6)n(C)c(=O)c34)ccc2n1 [Example 5, 2-(endo-3-amino-8-azabicyclo[3.2.1]octan-8-yl)-5-(4-chloro-2-ethyl-2H-indazol-5-yl)-3-methyl-3,7-dihydro-4H-pyrrolo[2,3-d]pyrimidin-4-one] | 7.5 nM | 160 nM
Cn1c(N2[C@H]3CC[C@@H]2[C@H](N)C3)nc2[nH]cc(-c3ccc4nn(CF)c(Cl)c4c3Cl)c2c1=O [Example 103, 2-((1R,2R,4S)-2-amino-7-azabicyclo[2.2.1]heptan-7-yl)-5-(3,4-dichloro-2-(fluoromethyl)-2H-indazol-5-yl)-3-methyl-3,7-dihydro-4H-pyrrolo[2,3-d]pyrimidin-4-one] | 2 nM | 26 nM
Cc1c2c(Cl)c(-c3c[nH]c4nc(N5[C@H]6CC[C@@H]5[C@H](N)C6)n(C)c(=O)c34)ccc2nn1C [Example 94, 2-((1R,2R,4S)-2-amino-7-azabicyclo[2.2.1]heptan-7-yl)-5-(4-chloro-2,3-dimethyl-2H-indazol-5-yl)-3-methyl-3,7-dihydro-4H-pyrrolo[2,3-d]pyrimidin-4-one] | 5 nM | 72 nM
CCn1nc2ccc(-c3c[nH]c4nc(N5[C@H]6CC[C@@H]5[C@H](N)C6)n(C)c(=O)c34)c(Cl)c2c1OC [Example 102, 2-((1R,2R,4S)-2-amino-7-azabicyclo[2.2.1]heptan-7-yl)-5-(4-chloro-2-ethyl-3-methoxy-2H-indazol-5-yl)-3-methyl-3,7-dihydro-4H-pyrrolo[2,3-d]pyrimidin-4-one] | 9 nM | 88 nM
Cc1nc2ccc(-c3c[nH]c4nc(N5CC6COCC(C5)N6)n(C)c(=O)c34)c(Cl)c2s1 [Example 81, 2-(3-oxa-7,9-diazabicyclo[3.3.1]nonan-7-yl)-5-(7-chloro-2-methylbenzo[d]thiazol-6-yl)-3-methyl-3,7-dihydro-4H-pyrrolo[2,3-d]pyrimidin-4-one] | 14 nM | 780 nM
